Eleven molecules from patent US8318768B2, “Bronchodilating alpha, beta-unsaturated isoquinoline amides” (Respiratorius AB, priority 2007, dated 2012) can be followed below.

Type in all cases: cell-based
Assay [1] relates to human bronchiols. Put plainly: Leukotriene D4 induced contraction of human bronchiols, in vitro model (Biological Example 1). Particulars: pre-treatment with compound 10 μM, Leukotriene D4 (10 nM) induced contraction, read-out: Remaining contraction (%). On the procedure:
(§1) The usefulness of the compounds, as defined in the preceding embodiments, in treating, pretreating, revoking, mitigating, alleviating and/or preventing a condition of the respiratory apparatus characterized by bronchoconstriction, were evaluated in a complex and relevant in vitro model. The in vitro model was in accordance with the in vitro model disclosed in US 2006-0040254 A1 and by Skogvall, S., Berglund, M., Dalence-Guzman, M. F., Svensson, K., Jonsson, P., Persson, C. G. A and Sterner, O., in Pulmonary Pharmacology and Therapeutics, vol 20:3, 2007, p. 273-280. All references disclosed herein are hereby incorporated in their entirety by reference.
(§2) In short, lung tissue was obtained from patients undergoing lobectomia or pulmectomia due to lung carcinoma. From the bronchus of this tissue were rectangular oblong preparations obtained. The contraction induced by inflammatory mediators, such as Leukotriene D4, histamine, prostaglandin D2 or acetylcholine, in the presence and absence of the compound to be evaluated, were compared.
The remaining contraction, after pre-treatment with various compound examples at a concentration of 10 μM, of human bronchiols after Leukotriene D4 (10 nM) induced contraction according to the in vitro method described herein above are tabulated below.

Assay [2] deals with human bronchiols. Put plainly: Contraction of human bronchiols induced by acetylcholine, carbachol, histamine, methacholine or a mixture (Biological Example 2). The settings on record: compound 10 μM. The procedure: as §1, §2
(§3) The remaining contraction, after pre-treatment with various compound examples at a concentration of 10 μM, of human bronchiols or rat bronhi after the induction of contraction by treatment with the contractile agents acetylcholine (100 uM), carbachol (10 uM), histamine (100 uM), methacholine (100 uM) or a mixture of acetylcholine (100 uM), leukotriene D4 (LTD4) (0.01 uM) and histamine (100 uM), according to the in vitro method described herein above, are tabulated below: […]

Another assay relates to rat bronhi. Put plainly: Contraction of rat bronchi induced by acetylcholine, carbachol or methacholine (Biological Example 2). The settings on record: compound 10 μM. The procedure:
as §1, §2, §3

For a further assay, the system named is MCP-1. Put plainly: Human PBMC in vitro model, MCP-1 production (Luminex-based assay). Particulars: compound 10 μM or dexamethasone 1 μM, 24 h supernatant. The procedure:
(§4) Cryopreserved PBMC's (SeraCare, # 72001) were thawed, washed with culture media (RPMI-1640 from Invitrogen, # 61870-036+10% heat inactivated fetal bovine serum from Invitrogen, # 10082-147+100 U/ml penicillin+[…] streptomycin) and tested for viability using Trypan blue (PBMC viability=96%). Cells were then resuspended to 1×10^6 cells/ml in culture media and 0.5 ml was plated into 24 well culture plates (5×10^5 cells/well) before incubation for 30 minutes at 37° C. with 5% CO2 prior to addition of a compound of the present invention (10 μM) or dexamethasone (1 μM). One hour thereafter, LPS (0.1 μg/ml, Salmonella abortus equi, Sigma, # L1887) was added and the cells were incubated for another 24 h before collection of the cell culture supernatants, which were assayed for the presence of MCP-1 and LTB4.
MCP-1 levels were quantified employing a Luminex-based assay according the manufacturer's instructions. Data was collected using a Luminex 100 (Luminex Corporation, Austin, Tex.). Standard curves were generated using a 5-parameter logistic curve fitting equation weighted by 1/y (StarStation V 2.0; Applied Cytometry Systems, Sacramento, Calif.). Each sample reading was interpolated from the appropriate standard curve. Calculated concentrations were multiplied by the appropriate dilution factor when necessary.
(§5) The inhibitory effect of compounds of the present invention, dexamethasone, and vehicle on production of MCP-1 and LTB4 in the PBMC model as described herein above, with (+LPS) or without (−LPS) LPS-induced mediator production, is tabulated below.

The next assay relates to LTB4. Put plainly: Human PBMC in vitro model, LTB4 production (ELISA). The settings on record: compound 10 μM or dexamethasone 1 μM, 24 h supernatant. On the procedure:
as §4
LTB4 levels were quantified by ELISA following the manufacturer's instructions. Absorbance readings were detected using a ThermoMax microplate reader (Molecular Devices). Standard curves were generated using a 4-parameter logistic curve fitting equation (SoftMax Pro 4.7.1; Molecular Devices). Each sample reading was interpolated from the appropriate standard curve. Duplicate interpolated sample values were averaged and standard deviations were calculated. Calculated concentrations were multiplied by the appropriate dilution factor.
as §5

The mark [3] stands for this setting: Mixture of Acetylcholine (100 uM), LTD4 (0.01 uM) and histamine (100 uM).

As for `Cc1nc(C(F)(F)F)ccc1/C=C/C(=O)N1CCc2c(Cl)c(O)c(O)c(Cl)c2C1` [Example 11, (E)-1-(5,8-dichloro-6,7-dihydroxy-3,4-dihydroisoquinolin-2(1H)-yl)-3-(2-methyl-6-(trifluoromethyl)pyridin-3-yl)prop-2-en-1-one], in the assay on human bronchiols [1], the activity at 10 µM was found to be 9%. Moreover, the “REMAINING CONTRACTION (%)” value in the assay on human bronchiols [2] (setting [3]) worked out at 25%.
For the molecule `O=C(/C=C/c1ccccc1)N1CCc2c(Cl)c(O)c(O)c(Cl)c2C1` [Example 1, (E)-1-(5,8-dichloro-6,7-dihydroxy-3,4-dihydroisoquinolin-2(1H)-yl)-3-phenylprop-2-en-1-one], the activity at 10 µM in the assay on human bronchiols [1] was 41%.
Turning to `O=C(/C=C/c1ccc(C(F)(F)F)nc1)N1CCc2c(Cl)c(O)c(O)c(Cl)c2C1` [Example 12, (E)-1-(5,8-dichloro-6,7-dihydroxy-3,4-dihydroisoquinolin-2(1H)-yl)-3-(6-(trifluoromethyl)pyridin-3-yl)prop-2-en-1-one], the activity at 10 µM in the assay on human bronchiols [1] worked out at 6%. The “REMAINING CONTRACTION (%)” value in the assay on human bronchiols [2] (Acetylcholine (100 uM)) is on record as 4%; in the assay with human bronchiols [2] (Carbachol (10 uM)) it was 10%; with human bronchiols [2] (Histamine (100 uM)) it was 1%; with human bronchiols [2] (Methacholine (100 uM)), 7%; in the assay with human bronchiols [2] (setting [3]) it was 12%; with rat bronhi (Acetylcholine (100 uM)), 40%. Also, the “REMAINING CONTRACTION (%)” value is reported as 27% in the assay with rat bronhi (Carbachol (10 uM)) and 49% in the assay on rat bronhi (Methacholine (100 uM)). Besides, the “Mean MCP-1” value in the assay with MCP-1 (with LPS 0.1 μg/ml (+LPS)) turned out to be 303.1 pg/mL; with MCP-1 (without LPS (−LPS)), 229.7 pg/mL. Besides, the “Mean LTB-4” value with LTB4 (with LPS 0.1 μg/ml (+LPS)) came out at 9.9 pg/mL; with LTB4 (without LPS (−LPS)), 3.9 pg/mL.
Regarding `Cc1c(O)c(O)c(C)c2c1CCN(C(=O)/C=C/c1ccc(C(F)(F)F)nc1)C2` [Example 9, (E)-6,7-dihydroxy-5,8-dimethyl-1,2,3,4-tetrahydroisoquinoline 3-(6-(trifluoromethyl)pyridin-3-yl)acrylamide], the activity at 10 µM with human bronchiols [1] amounted to 75%.
`O=C(/C=C/c1cccnc1)N1CCc2c(Cl)c(O)c(O)c(Cl)c2C1` [Example 2, (E)-1-(5,8-dichloro-6,7-dihydroxy-3,4-dihydroisoquinolin-2(1H)-yl)-3-(pyridin-3-yl)prop-2-en-1-one]: the activity at 10 µM in the assay with human bronchiols [1] is 44%.
As for `C/C(=C\C(=O)N1CCc2c(Cl)c(O)c(O)c(Cl)c2C1)c1cnc2ccccc2c1` [Example 5, (E)-1-(5,8-dichloro-6,7-dihydroxy-3,4-dihydroisoquinolin-2(1H)-yl)-3-(quinolin-3-yl)but-2-en-1-one], the activity at 10 µM with human bronchiols [1] is 31%.
In the case of `C/C(=C\C(=O)N1CCc2c(Cl)c(O)c(O)c(Cl)c2C1)c1ccc(F)cn1` [Example 8, (E)-1-(5,8-dichloro-6,7-dihydroxy-3,4-dihydroisoquinolin-2(1H)-yl)-3-(5-fluoropyridin-2-yl)but-2-en-1-one], the activity at 10 µM with human bronchiols [1] came out at 76%.
Regarding `O=C(/C=C/c1ccc(F)cn1)N1CCc2c(Cl)c(O)c(O)c(Cl)c2C1` [Example 3, (E)-1-(5,8-dichloro-6,7-dihydroxy-3,4-dihydroisoquinolin-2-(1H)-yl)-3-(5-fluoropyridin-2-yl)prop-2-en-1-one], the activity at 10 µM with human bronchiols [1] came out at 24%. In the assay on human bronchiols [2] (setting [3]), the “REMAINING CONTRACTION (%)” value stood at 43%.
For the molecule `O=C(/C=C\c1ccccc1O)N1CCc2c(Cl)c(O)c(O)c(Cl)c2C1` [Example 7, (Z)-1-(5,8-dichloro-6,7-dihyroxy-3,4-dihydroisoquinolin-2(1H)-yl)-3-(2-hydroxyphenyl)prop-2-en-1-one], the activity at 10 µM in the assay with human bronchiols [1] came to 71%.
Regarding `C[C@@H]1C[C@H]2[C@@H]3CCC4=CC(=O)C=C[C@]4(C)[C@@]3(F)[C@@H](O)C[C@]2(C)[C@@]1(O)C(=O)CO` [Dexamethasone, reference compound], the “Mean MCP-1” value in the assay on MCP-1 (with LPS 0.1 μg/ml (+LPS)) was 1425.6 pg/mL; in the assay with MCP-1 (without LPS (−LPS)) it was 0 pg/mL. For the same molecule, the “Mean LTB-4” value with LTB4 (with LPS 0.1 μg/ml (+LPS)) came to 12.6 pg/mL; with LTB4 (without LPS (−LPS)) it was 2.7 pg/mL.
For the molecule `C/C(=C\C(=O)N1CCc2c(Cl)c(O)c(O)c(Cl)c2C1)c1ccc(C(F)(F)F)nc1` [Example 13], the activity at 10 µM in the assay on human bronchiols [1] came out at 7%. Besides, the “REMAINING CONTRACTION (%)” value in the assay with human bronchiols [2] (Acetylcholine (100 uM)) is recorded as 7%; with human bronchiols [2] (Histamine (100 uM)) it was 3%; in the assay with human bronchiols [2] (setting [3]), 18%; in the assay with rat bronhi (Acetylcholine (100 uM)), 52%. For the same molecule, the “Mean MCP-1” value in the assay on MCP-1 (with LPS 0.1 μg/ml (+LPS)) stood at 256.7 pg/mL; in the assay with MCP-1 (without LPS (−LPS)) it was 217.1 pg/mL. The results for the “Mean LTB-4” value in the assay on LTB4 (with LPS 0.1 μg/ml (+LPS)) and in the assay with LTB4 (without LPS (−LPS)) were 9.8 pg/mL and 4.3 pg/mL, respectively.
